Experimental data from patent US8975264B2, “Compound acting as a cannabinoid receptor-1 inhibitor” (Amorepacific Corporation, priority 2010, dated 2015).

The compounds below were run against human CB1 (cannabinoid receptor 1) (Homo sapiens, UniProt P21554) (assay: CB1 receptor inhibition effect: calcium ion influx assay (Fluo-4 NW) in Chem-1 cells after 1 μM R-(+)-WIN55212-2). Settings: Chem-1 cells stably expressing human CB1; agonist 1 μM R-(+)-WIN55212-2; compared with Examples 5 and 222.
Chain of human CB1 (cannabinoid receptor 1) (P21554 whole entry): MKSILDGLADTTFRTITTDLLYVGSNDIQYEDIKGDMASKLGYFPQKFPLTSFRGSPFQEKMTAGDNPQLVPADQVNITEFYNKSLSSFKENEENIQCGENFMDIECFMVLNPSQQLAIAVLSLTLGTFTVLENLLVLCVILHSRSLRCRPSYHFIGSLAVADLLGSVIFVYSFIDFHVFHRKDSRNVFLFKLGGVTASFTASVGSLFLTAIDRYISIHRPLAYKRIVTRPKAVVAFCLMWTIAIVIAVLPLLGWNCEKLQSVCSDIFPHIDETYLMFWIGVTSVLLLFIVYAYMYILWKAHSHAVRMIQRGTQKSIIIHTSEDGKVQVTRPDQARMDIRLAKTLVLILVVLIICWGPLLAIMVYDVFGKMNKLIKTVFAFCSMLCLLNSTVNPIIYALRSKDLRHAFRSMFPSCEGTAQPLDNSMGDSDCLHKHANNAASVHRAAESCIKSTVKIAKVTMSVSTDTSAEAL
Assay type: cell-based
Description: When cells in which the cannabinoid receptor 1 (CB1) is stably expressed are treated with a CB1 receptor agonist, the CB1 receptor is activated and influx of calcium ions into the cells increases. CB1 receptor inhibition effect of a test compound can be evaluated by measuring the degree of calcium influx inhibition after treating with the test compound.
First, Chem-1 cells (Chemicon International, #HTS019C) in which human CB1 cDNA is expressed stably were seeded onto a 96-well cell culture plate at a density of ˜50,000 cells/well and incubated overnight in a 5% CO2 incubator at 37° C. The next day, the culture medium was discarded and the cells were cautiously washed once using an assay buffer (HBSS containing 20 mM HEPES and 2.5 mM probenecid) with 200 μL/well. Calcium ion influx was measured using an assay kit (Fluo-4 NW calcium assay kit: Molecular Probes™, #F36206) according to the manufacturer's instructions. The compounds of Examples of desired concentration to be measured were comprised to 0.5% DMSO. For control, only 0.5% DMSO was used without the compounds of Examples. Reaction time was 10 minutes. After treating the Chem-1 cells stably expressing the CB1 receptor with 1 μM R-(+)-WIN55212-2 (Sigma, #W102), a CB1 receptor agonist, calcium ion (Ca^2+) flux induced thereby was measured for 80 seconds using Flex Station 3 (Molecular Device, USA).
The difference in calcium ion concentration of the cells treated with the compounds of Examples or those treated with 1 μM R-(+)-WIN55212-2 was obtained from the difference of the maximum and minimum values during the 80 seconds. Then, % inhibition of the compounds for the CB1 receptor was calculated using the following equation. % inhibition={1−(ΔRFUcompound−ΔRFUBlank)/(ΔRFUControl−ΔRFUBlank)}×100 [Equation]
ΔRFU: maximum relative fluorescence units−minimum relative fluorescence units
ΔRFUCompound: difference in maximum and minimum RFUs in the well where the compounds of Examples dissolved in DMSO to a final concentration of 0.5% and 1 μM R-(+)-WIN55212-2 dissolved in DMSO to a final concentration of 0.5% were added
ΔRFUBlank: difference in maximum and minimum RFUs in the well to which only 1% DMSO was added
ΔRFUControl: difference in maximum and minimum RFUs in the well where 0.5% DMSO and 1 μM R-(+)-WIN55212-2 dissolved in DMSO to a final concentration of 0.5% were added
For `COCc1nn2c(-c3ccc(F)cc3)cc(N3CCC[C@@H]3CO)nc2c1-c1ccc(OC)cc1` [Example 306], the “CB1 receptor inhibition effect, (R)-isomers compared with (S)-isomers” value was “lower CB1 receptor inhibition effect than the compounds of Examples 5 and 222”.

Same assay, conditions: calcium ion influx in Chem-1 cells expressing human CB1, 1 μM R-(+)-WIN55212-2
`COCc1nn2c(-c3ccc(F)cc3)cc(N3CCC[C@H]3CO)nc2c1-c1ccc(Cl)cc1` [Example 231] gave an IC50 of 7 nM.
Work on `Cc1nn2c(-c3cccc(C(F)(F)F)c3)cc(N3CCC[C@H]3CO)nc2c1-c1ccc2c(c1)OCO2` [Example 125] yielded an IC50 of 90 nM.
In the case of `COc1ccc(-c2c(C)nn3c(-c4cccc(C)c4)cc(N4CCC[C@H]4CO)nc23)cc1` [Example 157, (S)-(1-(3-(4-methoxyphenyl)-7-(3-methylphenyl)-2-methylpyrazolo[1,5-a]pyrimidin-5-yl)pyrrolidin-2-yl)methanol], the IC50 is reported as 210 nM.
In the case of `CCOCc1nn2c(-c3cccc(C(F)(F)F)c3)cc(N3CCC[C@H]3CO)nc2c1-c1ccc(Cl)cc1` [Example 208], the IC50 is reported as 7 nM.
`Cc1nn2c(-c3ccc(F)cc3)cc(N3CCC[C@H]3CO)nc2c1-c1ccc(C#N)cc1` [Example 106] was tested, and the IC50 was 250 nM.
In the case of `CCc1cccc(-c2cc(N3CCC[C@H]3CO)nc3c(-c4ccc(OC)cc4)c(C)nn23)c1` [Example 43], the IC50 is reported as 210 nM.
With `Cc1cccc(-c2cc(N3CCC[C@H]3CO)nc3c(-c4ccc(F)cc4)c(C)nn23)c1` [Example 167] the IC50 was 250 nM.
`CCOCc1nn2c(-c3cccc(OC)c3)cc(NCCO)nc2c1-c1ccc2c(c1)OCO2` [Example 268] was tested, and the IC50 was 300 nM.
`CCOCc1nn2c(-c3cccc(F)c3)cc(N3CCC[C@H]3CO)nc2c1-c1ccc2c(c1)OCO2` [Example 214] was tested, and the IC50 was 80 nM.
For `OC[C@@H]1CCCN1c1cc(-c2cccc(F)c2)n2nc(C3CC3)c(-c3ccc(Cl)cc3)c2n1` [Example 197], the IC50 was 150 nM.
With `COCc1nn2c(-c3cccc(C)c3)cc(N3CCC[C@H]3CO)nc2c1-c1ccc(Cl)cc1` [Example 234] the IC50 was 15 nM.
`COc1ccc(-c2c(C)nn3c(-c4cc(F)cc(F)c4)cc(N4CCC[C@H]4CO)nc23)cc1` [Example 45] was tested, and the IC50 was 120 nM.
Work on `COCc1nn2c(-c3cccc(C(F)(F)F)c3)cc(N(C)CCO)nc2c1-c1ccc(OC)cc1` [Example 257] yielded an IC50 of 14 nM.
`Cc1ccc(-c2cc(N3CCC[C@H]3CO)nc3c(-c4ccc(Cl)cc4)c(C)nn23)cc1` [Example 11] gave an IC50 of 270 nM.
In the case of `COCc1nn2c(-c3ccc(F)cc3)cc(N(C)CCO)nc2c1-c1ccc(Cl)cc1` [Example 260], the IC50 is reported as 7 nM.
For `Cc1nn2c(-c3ccc(F)c(Cl)c3)cc(N3CCC[C@H]3CO)nc2c1-c1ccc(F)cc1` [Example 192], the IC50 was 150 nM.
Work on `CCOCc1nn2c(-c3ccc(F)cc3)cc(N(C)CCO)nc2c1-c1ccc(OC)cc1` [Example 245] yielded an IC50 of 440 nM.
In the case of `CCOc1ccc(-c2c(C)nn3c(-c4cccc(F)c4)cc(N4CCC[C@H]4CO)nc23)cc1` [Example 112], the IC50 is reported as 130 nM.
`CCCOc1ccc(-c2c(C)nn3c(-c4cccc(F)c4)cc(N4CCC[C@H]4CO)nc23)cc1` [Example 119] was tested, and the IC50 was 450 nM.
With `Cc1ccc(-c2cnn3c(-c4cc(F)cc(F)c4)cc(N4CCC[C@H]4CO)nc23)cc1` [Example 273] the IC50 was 230 nM.
For `Cc1cccc(-c2cc(N3CCC[C@H]3CO)nc3c(-c4ccc(C(F)(F)F)cc4)c(C)nn23)c1` [Example 163], the IC50 was 260 nM.
`OC[C@@H]1CCCN1c1cc(-c2cccc(C(F)(F)F)c2)n2ncc(-c3ccc(F)cc3)c2n1` [Example 276] gave an IC50 of 340 nM.
`Cc1ccccc1-c1cc(N2CCC[C@H]2CO)nc2c(-c3ccc(Cl)cc3)c(C)nn12` [Example 13] showed an IC50 of 300 nM.
For `COCc1nn2c(-c3cccc(C)c3)cc(N3CCC[C@H]3CO)nc2c1-c1ccc(OC)cc1` [Example 227], the IC50 was 48 nM.
`CCOCc1nn2c(-c3cccc(C(F)(F)F)c3)cc(N(C)CCO)nc2c1-c1ccc2c(c1)OCO2` [Example 253] showed an IC50 of 190 nM.
Work on `Cc1nn2c(-c3ccc(F)cc3F)cc(N3CCC[C@H]3CO)nc2c1-c1ccc(Cl)cc1` [Example 22] yielded an IC50 of 110 nM.
For `Cc1ccc(-c2c(C)nn3c(-c4ccc(Cl)cc4)cc(N4CCC[C@H]4CO)nc23)cc1` [Example 32], the IC50 was 140 nM.
`CCCCc1nn2c(-c3cccc(C(F)(F)F)c3)cc(N3CCC[C@H]3CO)nc2c1-c1ccc(C)cc1` [Example 288] showed an IC50 of 8 nM.
`Cc1ccc(-c2cnn3c(-c4ccc(F)cc4)cc(N4CCC[C@H]4CO)nc23)cc1` [Example 269, (S)-(1-(3-(4-methylphenyl)-7-(4-fluorophenyl)-pyrazolo[1,5-a]pyrimidin-5-yl)pyrrolidin-2-yl)methanol] showed an IC50 of 450 nM.
In the case of `Cc1nn2c(-c3ccc(F)cc3)cc(N3CCC[C@H]3CO)nc2c1-c1ccccc1F` [Example 87], the IC50 is reported as 430 nM.
For `Cc1nn2c(-c3ccc(Cl)cc3)cc(N3CCC[C@H]3CO)nc2c1-c1ccc(Cl)cc1` [Example 15], the IC50 was 350 nM.
Work on `COCc1nn2c(-c3cccc(Cl)c3)cc(N3CCC[C@H]3CO)nc2c1-c1ccc(OC)cc1` [Example 230] yielded an IC50 of 18 nM.
`CCc1cccc(-c2cc(N3CCC[C@H]3CO)nc3c(-c4ccc5c(c4)OCO5)c(C)nn23)c1` [Example 60] gave an IC50 of 210 nM.
With `CCOCc1nn2c(-c3cccc(F)c3)cc(N3CCC[C@H]3CO)nc2c1-c1ccc(C)cc1` [Example 202] the IC50 was 5 nM.
`Cc1ccc(-c2cc(N3CCC[C@H]3CO)nc3c(-c4ccc(C(F)(F)F)cc4)c(C)nn23)cc1` [Example 180] showed an IC50 of 410 nM.
With `CCOc1ccc(-c2c(C)nn3c(-c4ccc(F)c(F)c4)cc(N4CCC[C@H]4CO)nc23)cc1` [Example 48, (S)-{1-[7-(3,4-difluorophenyl)-3-(4-ethoxyphenyl)-2-methylpyrazolo[1,5-a]pyrimidin-5-yl)pyrrolidin-2-yl)methanol] the IC50 was 180 nM.
`COc1cccc(-c2cc(N3CCC[C@H]3CO)nc3c(-c4ccc(C(F)F)cc4)c(C)nn23)c1` [Example 178] showed an IC50 of 120 nM.
`CCCOc1ccc(-c2c(C)nn3c(-c4ccc(F)cc4)cc(N4CCC[C@H]4CO)nc23)cc1F` [Example 100] gave an IC50 of 310 nM.
Work on `COc1ccc(-c2c(C)nn3c(-c4cccc(OC)c4)cc(N4CCC[C@H]4CO)nc23)cc1` [Example 41] yielded an IC50 of 260 nM.
`COc1cccc(-c2cc(N3CCC[C@H]3CO)nc3c(-c4ccc(Cl)cc4)c(C)nn23)c1` [Example 6] was tested, and the IC50 was 200 nM.
Work on `CCc1ccc(-c2c(C)nn3c(-c4ccc(F)cc4)cc(N4CCC[C@H]4CO)nc23)cc1` [Example 70] yielded an IC50 of 230 nM.
Compound `Cc1ccc(-c2c(C)nn3c(-c4ccc(F)c(Cl)c4)cc(N4CCC[C@H]4CO)nc23)cc1F` [Example 185] has an IC50 of 210 nM.
`Cc1ccc(-c2c(C)nn3c(-c4ccc(F)cc4)cc(N4CCC[C@H]4CO)nc23)cc1F` [Example 79] was tested, and the IC50 was 100 nM.
`COc1cccc(-c2cc(N3CCC[C@H]3CO)nc3c(-c4ccc(OC)c(F)c4)c(C)nn23)c1` [Example 186] showed an IC50 of 220 nM.
`Cc1nn2c(-c3ccccc3)cc(N3CCC[C@H]3CO)nc2c1-c1ccccc1` [Example 195] was tested, and the IC50 was 780 nM.
Compound `Cc1nn2c(-c3ccc(F)c(F)c3)cc(N3CCC[C@H]3CO)nc2c1-c1ccc(Cl)cc1` [Example 21] has an IC50 of 51 nM.
With `Cc1nn2c(-c3cccc(F)c3)cc(N3CCC[C@H]3CO)nc2c1-c1ccc(C(F)(F)F)cc1` [Example 115] the IC50 was 140 nM.
`COc1ccc(-c2c(C)nn3c(-c4cccc(Cl)c4)cc(N4CCC[C@H]4CO)nc23)cc1` [Example 169, (S)-(1-(3-(4-methoxyphenyl)-7-(3-chlorophenyl)-2-methylpyrazolo[1,5-a]pyrimidin-5-yl)pyrrolidin-2-yl)methanol] showed an IC50 of 33 nM.
With `Cc1ccc(-c2cnn3c(-c4cccc(F)c4)cc(N4CCC[C@H]4CO)nc23)cc1` [Example 270] the IC50 was 440 nM.
`Cc1ccc(-c2c(C)nn3c(-c4cccc(Cl)c4)cc(N4CCC[C@H]4CO)nc23)cc1` [Example 170] was tested, and the IC50 was 160 nM.
`Cc1nn2c(-c3cccc(C(F)(F)F)c3)cc(N3CCC[C@H]3CO)nc2c1-c1ccc(F)c(F)c1` [Example 134] was tested, and the IC50 was 190 nM.
`Cc1nn2c(-c3cccc(F)c3)cc(N3CCC[C@H]3CO)nc2c1-c1ccc(Cl)cc1` [Example 3] showed an IC50 of 93 nM.
Compound `Cc1ccc(-c2c(C)nn3c(-c4cccc(C(F)(F)F)c4)cc(N4CCC[C@H]4CO)nc23)cc1` [Example 122] has an IC50 of 45 nM.
`COc1ccc(-c2c(C)nn3c(-c4cccc(C(F)(F)F)c4)cc(N4CCC[C@H]4CO)nc23)cc1` [Example 123] gave an IC50 of 76 nM.

Same assay, conditions: compound at 1 μM; calcium ion influx in Chem-1 cells expressing human CB1, 1 μM R-(+)-WIN55212-2
With `COCc1nn2c(-c3ccc(F)cc3)cc(N3CCC[C@@H]3CO)nc2c1-c1ccc(OC)cc1` [Example 306] the inhibition at 1 µM was under 5%.

Same assay, conditions: compound at 3 μM; calcium ion influx in Chem-1 cells expressing human CB1, 1 μM R-(+)-WIN55212-2
For `Cc1nn2c(-c3ccccc3)cc(N3CCC[C@@H]3CO)nc2c1-c1ccc(Cl)cc1` [Example 305], the inhibition at 3 µM was about 5%.
